Tested on: P. falciparum 3D7 growth, pLDH absorbance
Assay: blood-stage malaria parasite growth potency – strain 3D7, dose response (AID 2305)

Structure (SMILES)	IC50
C=C1N(C)c2cc([N+](=O)[O-])c(N)cc2C1(C)C	490 nM
CC(C)CNCc1ccc(-c2cccc(CN(CCCN3CCN(C)CC3)C(=O)/C=C/c3ccccc3)c2)cc1	870 nM
CC(N)(Cc1ccc(O)cc1)c1nn[nH]n1 (stereo not drawn)	970 nM
COC(=O)CCCCCOc1cc(Cc2cnc(N)nc2N)cc(OC)c1OC	180 nM
CCCc1ccc(Nc2nc(C)cc(N(CC)CCCN3CCCCC3)n2)cc1	540 nM
COc1ccccc1C1CCN(C2CCC(NC(=O)/C=C/c3ccc4c(c3)OC(F)(F)O4)CC2)CC1 (stereo not drawn)	840 nM
O=C(CCc1cccnc1)Nc1cccc(-c2ccc(-c3nc4ccc(C(F)(F)F)cc4[nH]3)cc2)c1	870 nM
CN1CCN(c2ccnc3ccc(NC(=O)Cc4cccc(Cl)c4Cl)cc23)CC1	790 nM
COc1ccc2c(ccc3c2ncc2c(=O)n(-c4ccccc4)[nH]c23)c1	520 nM
CC(C)CNC(=O)CN1C(=O)C(c2ccccc2)(c2ccccc2)N=C1N	820 nM
Oc1ccc(CCNc2nc(NCCCOc3ccccc3-c3ccc(F)cc3)nc(N3CCNCC3)n2)cc1	1080 nM
Cc1cccc(C)c1CNc1nc(N2CCOCC2)cc2c(C)c(C)[nH]c12	1240 nM
O=C(Nc1ccc(Cl)cc1Cl)NC1CCN(CCCCCNC(=O)[C@@H]2C[C@H]2c2ccc(Cl)c(Cl)c2)CC1	370 nM
O=C(NCCN1CCC(NC(=O)c2ccc(-c3ccccn3)s2)CC1)c1ccc(Cl)c(Cl)c1	880 nM
Cn1nccc1C(=O)NCCNCc1cccc(-c2ccc(-c3nc4ccccc4[nH]3)cc2)c1	470 nM
O=C(/C=C/c1ccc(Cl)c(Cl)c1)NCCCCCN1CCCC(CNC(=O)/C=C/c2ccccc2)C1 (stereo not drawn)	790 nM
COc1cc(C2CCCCC2)c(OC)cc1CC1c2cc(O)c(Cl)cc2CCN1C (stereo not drawn)	450 nM
O=C1c2ccccc2-n2c1nc1ccccc1c2=O	860 nM
Nc1cccc(CNCc2ccc(-c3cccc(-c4nc5ccccc5[nH]4)c3)cc2)c1	710 nM
COc1ccc(CNCc2cccc(-c3cccc(-c4nc5ccc(F)cc5[nH]4)c3)c2)cc1	300 nM
COc1cc2nc(NCc3ccc(S(N)(=O)=O)cc3)nc(Nc3ccc(Oc4ccccc4)cc3)c2cc1OC	440 nM
CN(Cc1ccc(NC(=O)CCC2CCN(C(=O)/C=C/c3ccc(Cl)c(Cl)c3)CC2)cc1)C1CCOCC1	1730 nM
O=C(Nc1ccc2c(c1)CCC2)c1cccc(CN2CCCN(Cc3cccc(O)c3)CC2)c1	1080 nM
CC(=O)Nc1ncc(C(=O)Nc2cccc(-c3cccc(-c4nc5ccc(C(F)(F)F)cc5[nH]4)c3)c2)s1	180 nM
O=C(/C=C/c1ccc(Cl)c(Cl)c1)NCCCCCN1CCCN(C(=O)Nc2ccc(F)c(Cl)c2)CC1	800 nM

Structure (SMILES)	IC50
COc1ccc(C[C@H](N)C(=O)N[C@H]2[C@@H](O)[C@H](n3cnc4c(N(C)C)ncnc43)O[C@@H]2CO)cc1	300 nM
Cc1ccc(Nc2nc(-c3ccccn3)cs2)nc1	750 nM
O=C(NCCCCN1CCC(c2ccc3c(c2OCC(O)c2ccc(Cl)cc2)CCCC3)CC1)c1ccc(-c2ccc(C(F)(F)F)cc2)cc1 (stereo not drawn)	1040 nM
Cc1cccc(CNc2ncc(C)c(NCCC(=O)Nc3ccccc3)n2)c1	1150 nM
COc1cc(F)c2ncc(Cl)c(CCN3CCC(NCc4cc5c(cn4)OCCO5)CC3)c2c1	480 nM
CCN(CC)CCN(Cc1ccc(-c2ccc(C(F)(F)F)cc2)cc1)C(=O)Cn1c(CCc2cccc(C#N)c2)nc(=O)c2ccccc21	770 nM
N#Cc1ccc2c(c1)CN(C1CCC(NC(=O)C3=Cc4cc(Cl)ccc4OC3)CC1)CCC2 (stereo not drawn)	1330 nM
O=C(/C=C/c1ccc(Cl)c(Cl)c1)N1CCC(NCc2c[nH]c3ccccc23)CC1	1070 nM
CCn1ccc2c(N3CCCCS3(=O)=O)cc(C(=O)N[C@@H](Cc3ccccc3)[C@H](O)CNC(C)(C)CCCC(C)C)cc21	420 nM
c1ccc2cc3c(Nc4ccc(N5CCCCC5)cc4)ccnc3cc2c1	740 nM
CCCCn1c(N)c(N(Cc2ccco2)C(=O)C=Cc2cc(OC)c3c(c2)OCCO3)c(=O)[nH]c1=O	950 nM
COc1ccc(-c2nnc(Sc3ccc(C#N)c([N+](=O)[O-])c3)n2CC(C)C)cc1	820 nM
CNCc1cccc2[nH]c(-c3ccc(Cc4cc(Cl)ccc4OCC(C)C)o3)nc12	900 nM
O=[N+]([O-])c1cccc(CNCC2CCN(CC3CCCCC3)CC2)c1	1290 nM
CC(CO)(CO)NCc1cc2ccc3ccsc3c2c2ccccc12	230 nM
Cc1ccc(NC(=O)Nc2ccc(S(=O)(=O)c3ccc(NC(=O)Nc4ccc(C)c(Cl)c4)cc3)cc2)cc1Cl	750 nM
O=C(Nc1ccccc1Br)c1cn(-c2ccccc2)nc1-c1cccc([N+](=O)[O-])c1	1320 nM
CCOc1ccc2c(c1)C(C)(c1ccc3c(c1)C(C)CC(C)(C)N3)CC(C)(C)N2 (stereo not drawn)	800 nM
CC(C)CC(=O)N1CCNC[C@@H]1C(=O)NC1CC1	1090 nM
COc1ccc2nccc([C@@H](O)CN3CCC(NCc4cc5cccc(OCc6ccccc6)c5[nH]4)CC3)c2c1	900 nM
CCCC(=O)Nc1ccc(OCCCN(Cc2ccccc2F)c2ccc(C#N)c(C(F)(F)F)c2)cc1	590 nM
Cc1cc2ccccc2c(CON2C(N)=NC(N)=NC2(C)C)c1C	10 nM
CN(C)CCCN1CCN(C(=O)c2cc3cc(-c4ccccc4)ccc3n2S(=O)(=O)c2ccccc2)CC1	120 nM
COc1cccc2cc(C(=O)N[C@@H](CC(C)C)C(=O)N[C@H](/C=N/NC(=O)OC(C)(C)C)Cc3ccccc3)oc12	300 nM
CC(C)CNCc1ccc(-c2ccc(CN(CCCN3CCN(C)CC3)C(=O)CCC3CCCC3)cc2)cc1	1060 nM

Structure (SMILES)	IC50
CCCCNC[C@@H](O)[C@H](Cc1ccccc1)NC(=O)c1cc(NCC)cc(N2CCCCS2(=O)=O)c1	400 nM
Cc1[nH]c2ccccc2c1C(=O)C(C)Sc1n[nH]c(-c2ccccc2Br)n1 (stereo not drawn)	30 nM
Cc1cccc2[nH]c(-c3cccc(-c4cccc(NC(=O)c5ccoc5)c4)c3)nc12	220 nM
CC[C@H](C)CNC(=O)c1ccnc(-c2ccc(CNCCCc3ccccc3)cc2)c1	1230 nM
O=C(NCCSCc1c(F)cccc1Cl)c1cnc2c(c1)nc(-c1cnc(-c3ccccc3)[nH]1)n2CCc1cnc[nH]1	810 nM
N#CCc1ccc(Nc2nccc(Nc3ccc(Oc4ccccc4)cc3)n2)cc1	810 nM
COc1ccc(NC(=O)[C@H](Cc2ccccc2)Nc2cc(C)nc(NCCc3ccccc3)n2)cc1	1240 nM
O=C(N[C@H]1CCN(CCc2ccc(O[C@H]3CCNC3)c(Cl)c2)C1)c1ccc(Cl)c(Cl)c1	890 nM
OC(CNc1ccnc(Nc2ccc(Cl)cc2)n1)c1cccc(C(F)(F)F)c1 (stereo not drawn)	680 nM
COCCn1c(-c2cccc(Cl)c2)nn(-c2ccc([N+](=O)[O-])cc2Cl)c1=S	740 nM
COc1cc2nccc(Nc3cccc(Oc4ccccc4)c3)c2cc1OC	640 nM
Cc1nc(-c2ccc3c(c2)CCN(CCC2CCC(NC(=O)c4cc5cccc(Cl)c5[nH]4)CC2)CC3)no1 (stereo not drawn)	630 nM
CC(C)n1ncc2c3c(N)nc(N)nc3ccc21	330 nM
COc1ccc(-n2nc(C)cc2C(=O)NCc2ccc(-c3c(C)noc3C)cc2)cc1	980 nM
CCCCOc1cc(CNCCCCCCNCc2cc(OCCCC)cc3ccccc23)c2ccccc2c1	740 nM
CN1CCC(N2CCN(Cc3cccc(-c4ccc(-c5nc6ccc(F)cc6[nH]5)cc4)c3)CC2)CC1	110 nM
CC(C)Sc1nc2c(c(=O)n1Cc1ccco1)C1(CCCC1)Cc1ccccc1-2	1630 nM
Cc1c(C(=O)[C@@H]2C[C@H]2CN2CCC(N3CCCC3)CC2)sc2ccccc12	1400 nM
COc1ccc(-c2ccc(NC(=O)c3cccc(Cl)c3)cc2)cc1CNC(C)C	470 nM
Cc1ccc(C2=NNC3(S2)C(=O)N(C)c2ccccc23)cc1 (stereo not drawn)	1020 nM
Cc1ccc(S(=O)Cc2ccc(Cl)cc2)cc1 (stereo not drawn)	200 nM
COc1ccc(NCCCNc2ccnc3ccccc23)cc1	970 nM
O=c1cc(NCCCNCc2cc(Cl)c(Cl)cc2Cl)[nH]c2ccccc12	970 nM
Cc1ccoc1C(=O)Nc1cccc(-c2cccc(-c3nc4ccccc4[nH]3)c2)c1	1220 nM
Cc1ccc(Cn2ncc(N3CCNCC3)c(Cl)c2=O)cc1NC(=O)Nc1ccc(-c2ccccc2)cc1	1120 nM

Structure (SMILES)	IC50
CC(CN1CCN(C)CC1)C(=O)Nc1cccc(-c2cccc(-c3nc4ccccc4[nH]3)c2)c1 (stereo not drawn)	1010 nM
Cc1nnsc1C(=O)Nc1cccc(-c2cccc(-c3nc4c(C)cccc4[nH]3)c2)c1	270 nM
Cc1cc(C(=O)Nc2ccc(-c3nc4ccccc4[nH]3)cc2)ccc1[N+](=O)[O-]	670 nM
Cn1nc(C(F)(F)F)c(-c2ccc(F)cc2)c1NC(=O)Nc1ccc(F)cc1	750 nM
Nc1nc2c(ncn2OC[C@H]2COP(=O)(O)CO2)c(=O)[nH]1	570 nM
Nc1nc(N)c2cc(N(Cc3ccccc3)Cc3ccccc3)ccc2n1	610 nM
Cc1ccc(-n2nc(C)c3c2NC(=O)CSC3c2ccsc2)cc1 (stereo not drawn)	1010 nM
C=CCNC(=O)C(C)c1ccc2cc(OC)ccc2c1 (stereo not drawn)	420 nM
Nc1ncc(Cc2cc(Cl)c(N)c3ncccc23)c(N)n1	1120 nM
COc1ccc(-c2ncnc(C(F)(F)F)c2-c2ccc(Cl)cc2)c(O)c1	800 nM
CC(C)CCCC(C)(C)NC[C@@H](O)[C@H](Cc1ccccc1)NC(=O)c1cccc(CCC2CC2)c1	800 nM
Cc1csc(-c2ncc(OC[C@@H](N)Cc3ccccc3)cc2-c2ccc3n[nH]c(C)c3c2)c1	840 nM
CN(C)CCCNCc1ccc(-c2ccc(CNCCOc3ccccc3)cc2)cc1	20 nM
COc1ccc(CN2CCN(CCCCNC(=O)c3ccc(NC(=O)c4ccc(Cl)cc4)cc3)CC2)c(OC)c1	890 nM
CS(=O)(=O)NCCCNCc1ccc(-c2cccc(-c3nc4ccc(F)cc4[nH]3)c2)cc1	800 nM
COc1cc(OC)cc(-c2nnc(Sc3ccc(C#N)c([N+](=O)[O-])c3)n2C)c1	940 nM
Cc1cc(N[C@@H](Cc2ccccc2)C(=O)Nc2ccccc2)nc(Nc2ccccc2)n1	1010 nM
CC(C)CCCC(C)(C)NC[C@@H](O)[C@H](Cc1ccccc1)NC(=O)c1cccc(OCC2CC2)c1	840 nM
Cc1cccc(N2CCN(Cc3cc(Cl)ccc3O)CC2)c1C	770 nM
CN(C)CCNCc1nc(-c2ccc3c(Nc4ccc(Cl)cc4F)ccnc3c2)cs1	810 nM
NC1CCCN(Cc2ccc(-c3cccc(-c4nc5ccccc5[nH]4)c3)cc2)C1 (stereo not drawn)	720 nM
O=C(C=NO)Nc1ccccc1[N+](=O)[O-]	790 nM
NC1CCCN(Cc2cccc(-c3ccc(-c4nc5ccccc5[nH]4)s3)c2)C1 (stereo not drawn)	580 nM

— PubChem BioAssay AID2305 (GlaxoSmithKline (GSK), 2010)
